Key:
Johnsongrass (So) = test: Test Example 6: crop plant selectivity by upland field soil treatment (soybean), herbicidal effects; format: in vivo; details: dose 6.3 g ai/10a, 21st day after application
Method: (§1) (Test on Crop Plant Selectivity by Upland Field Soil Treatment)
(§2) In a plastic pot (surface area: 600 cm^2) filled with sand, soybean (Gl), Diaitaria ciliaris (Di), green foxtail (Se), Johnsongrass (So), pale smartweed (Po), slender amaranth (Am), common lambsquarters (Ch) and China jute (Ab) were sown and covered with soil. […] The plants were then cultured in a green house, and the evaluation of the herbicidal effects and phytotoxicity was conducted on the 21st day after the application in accordance with the standards as identified in Table 47. Symbol—represents “not tested”.

Diaitaria ciliaris (Di) [1] = test: as above; format: in vivo; details: dose 6.3 g ai/10a, 21st day after application
Method: as §1, §2

[2] = test system: common lambsquarters (Ch); test: as above; format: in vivo; parameters: scale not given here; details: dose 6.3 g ai/10a, 21st day after application
How it was run: (§3)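 Soybean and weed seeds were sown in sand-filled pots and covered with soil, then given a pre-emergence soil application. Plants were grown on in a greenhouse, and herbicidal effect and crop phytotoxicity were scored against a set rating scale 21 days after application.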

pale smartweed (Po) [3] = test: as above; format: in vivo; parameters: scale not given here; details: dose 6.3 g ai/10a, 21st day after application
How it was run: as §3

slender amaranth (Am) [4] = test: as above; format: in vivo; parameters: scale not given here; details: dose 6.3 g ai/10a, 21st day after application
How it was run: as §3

China jute (Ab) [5] = test: as above; format: in vivo; parameters: scale not given here; details: dose 6.3 g ai/10a, 21st day after application
How it was run: as §3

corn (Ze) = test: Test Example 11: crop plant selectivity by upland field foliage treatment (corn), phytotoxicity; details: corn; foliage treatment; dose 1.6 g ai/10a; evaluated on 14th day after treatment; index per Table 47
How it was run: (§4)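 Corn with pale smartweed, slender amaranth, common lambsquarters and China jute sown in sand-filled pots and grown 2 weeks in a greenhouse before foliage treatment. Herbicidal effect and crop phytotoxicity scored on day 14 after treatment against a rating standard.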

soybean (Gl) = test: Test Example 6: crop plant selectivity by upland field soil treatment (soybean), phytotoxicity; format: in vivo; parameters: scale not given here; details: dose 6.3 g ai/10a, 21st day after application
How it was run: as §3

Diaitaria ciliaris (Di) [6] = test: Test Example 4: crop plant selectivity by upland field soil treatment (cotton), herbicidal effects; format: in vivo; details: dose 6.3 g ai/10 a, evaluated 21st day after application
Method: as §1
In a plastic pot (surface area: 600 cm^2) filled with sand, cotton (Go), Diaitaria ciliaris (Di), green foxtail (Se), pale smartweed (Po), slender amaranth (Am), common lambsquarters (Ch) and China jute (Ab) were sown and covered with soil. […] The plants were then cultured in a green house, and the evaluation of the herbicidal effects and phytotoxicity was conducted on the 21st day after the application in accordance with the standards as identified in Table 47. Symbol—represents “not tested”.

[7] = test system: common lambsquarters (Ch); test: Test Example 11: crop plant selectivity by upland field foliage treatment (corn), herbicidal effects; format: in vivo; parameters: scale not given here; details: common lambsquarters; foliage treatment; dose 1.6 g ai/10a; evaluated on 14th day after treatment; index per Table 47
How it was run: as §4

pale smartweed (Po) [8] = test: as above; format: in vivo; parameters: scale not given here; details: pale smartweed; foliage treatment; dose 1.6 g ai/10a; evaluated on 14th day after treatment; index per Table 47
How it was run: as §4

slender amaranth (Am) [9] = test: as above; format: in vivo; parameters: scale not given here; details: slender amaranth; foliage treatment; dose 1.6 g ai/10a; evaluated on 14th day after treatment; index per Table 47
How it was run: as §4

China jute (Ab) [10] = test: as above; format: in vivo; parameters: scale not given here; details: China jute; foliage treatment; dose 1.6 g ai/10a; evaluated on 14th day after treatment; index per Table 47
How it was run: as §4

rice flatsedge (Ci) [11] = test: Test Example 3: herbicidal effects by upland field foliage treatment; format: in vivo; parameters: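 grade of growth control; 5 = at least 90%; 4 = 70 to 90%; 3 = 50 to 70%; 2 = 30 to 50%; 1 = 10 to 30%; 0 = under 10%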; details: 100 g active ingredient per 10 ares, evaluated 14th day after treatment
How it was run: (§5)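 Weeds sown in sand-filled pots and grown 2 weeks in a greenhouse before foliage treatment. Plants then kept in the greenhouse; herbicidal effect scored on day 14 after treatment against a graded standard scale.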

barnyardgrass (Ec) [12] = test: as above; format: in vivo; parameters: scale not given here; details: 100 g active ingredient per 10 ares, evaluated 14th day after treatment
How it was run: as §5

[13] = test system: common lambsquarters (Ch); test: as above; format: in vivo; parameters: scale not given here; details: 100 g active ingredient per 10 ares, evaluated 14th day after treatment
How it was run: as §5

pale smartweed (Po) [14] = test: as above; format: in vivo; parameters: scale not given here; details: 100 g active ingredient per 10 ares, evaluated 14th day after treatment
How it was run: as §5

slender amaranth (Am) [15] = test: as above; format: in vivo; parameters: scale not given here; details: 100 g active ingredient per 10 ares, evaluated 14th day after treatment
How it was run: as §5

Diaitaria ciliaris (Di) [16] = test: as above; format: in vivo; parameters: scale not given here; details: 100 g active ingredient per 10 ares, evaluated 14th day after treatment
How it was run: as §5

[17] = test system: common lambsquarters (Ch); test: Test Example 4: crop plant selectivity by upland field soil treatment (cotton), herbicidal effects; format: in vivo; parameters: scale not given here; details: dose 6.3 g ai/10 a, evaluated 21st day after application
How it was run: (§6)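 Cotton and weeds (incl. China jute, pale smartweed, slender amaranth) sown in sand-filled pots and covered with soil, then soil-treated. Grown in greenhouse; herbicidal effect and cotton phytotoxicity scored on day 21 after application against a rating standard.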

pale smartweed (Po) [18] = test: as above; format: in vivo; parameters: scale not given here; details: dose 6.3 g ai/10 a, evaluated 21st day after application
How it was run: as §6

slender amaranth (Am) [19] = test: as above; format: in vivo; parameters: scale not given here; details: dose 6.3 g ai/10 a, evaluated 21st day after application
How it was run: as §6

China jute (Ab) [20] = test: as above; format: in vivo; parameters: scale not given here; details: dose 6.3 g ai/10 a, evaluated 21st day after application
How it was run: as §6

cotton (Go) = test: Test Example 4: crop plant selectivity by upland field soil treatment (cotton), phytotoxicity; format: in vivo; parameters: scale not given here; details: dose 6.3 g ai/10 a, evaluated 21st day after application
How it was run: as §6

rice flatsedge (Ci) [21] = test: Test Example 2: herbicidal effects by upland field soil treatment; format: in vivo; details: 100 g of the active ingredient per 10 ares, evaluated on the 21st day after application;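 note: grade of growth control; 5 = at least 90%; 4 = 70 to 90%; 3 = 50 to 70%; 2 = 30 to 50%; 1 = 10 to 30%; 0 = under 10%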
Description: (§7) (Test on Herbicidal Effects by Upland Field Soil Treatment)

barnyardgrass (Ec) [22] = test: as above; format: in vivo; details: 100 g of the active ingredient per 10 ares, evaluated on the 21st day after application
Description: as §7

[23] = test system: common lambsquarters (Ch); test: as above; format: in vivo; details: 100 g of the active ingredient per 10 ares, evaluated on the 21st day after application
Description: as §7

pale smartweed (Po) [24] = test: as above; format: in vivo; details: 100 g of the active ingredient per 10 ares, evaluated on the 21st day after application
Description: as §7

slender amaranth (Am) [25] = test: as above; format: in vivo; details: 100 g of the active ingredient per 10 ares, evaluated on the 21st day after application
Description: as §7

Digitaria ciliaris (Di) = test: as above; format: in vivo; details: 100 g of the active ingredient per 10 ares, evaluated on the 21st day after application;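 note: grade of growth control; 5 = at least 90%; 4 = 70 to 90%; 3 = 50 to 70%; 2 = 30 to 50%; 1 = 10 to 30%; 0 = under 10%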
Description: as §7

barnyardgrass (Ec) [26] = test: Test Example 1: herbicidal effects by paddy field soil treatment; format: in vivo; details: 100 g of the active ingredient per 10 ares, 21st day after the application, index 0-5 of Table 47;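 note: grade of growth control; 5 = at least 90%; 4 = 70 to 90%; 3 = 50 to 70%; 2 = 30 to 50%; 1 = 10 to 30%; 0 = under 10%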
How it was run: (§8)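 Scoring of herbicidal effect came 21 days after application of 100 g active ingredient per 10 ares to flooded (3 cm) paddy-soil pots sown with barnyardgrass, monochoria and bulrush, kept in a greenhouse.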

monochoria (Mo) = test: as above; format: in vivo; details: 100 g of the active ingredient per 10 ares, 21st day after the application, index 0-5 of Table 47;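 note: grade of growth control; 5 = at least 90%; 4 = 70 to 90%; 3 = 50 to 70%; 2 = 30 to 50%; 1 = 10 to 30%; 0 = under 10%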
How it was run: as §8

bulrush (Sc) = test: as above; format: in vivo; details: 100 g of the active ingredient per 10 ares, 21st day after the application, index 0-5 of Table 47
How it was run: as §8

C#CCOc1cc(-c2cn(C)c(C(F)(F)F)cc2=O)c(F)cc1Cl [Compound 6-9]
Herbicidal effects So (Johnsongrass (So)): 5
Herbicidal effects Di (Diaitaria ciliaris (Di) [1]): 5
Herbicidal effects Ch [2]: 5
Herbicidal effects Po (pale smartweed (Po) [3]): 5
Herbicidal effects Am (slender amaranth (Am) [4]): 5
Herbicidal effects Ab (China jute (Ab) [5]): 5
Phytotoxicity Ze (corn (Ze)): 1
Phytotoxicity Gl (soybean (Gl)): 0
Herbicidal effects Di (Diaitaria ciliaris (Di) [6]): 5
Herbicidal effects Ch [7]: 5
Herbicidal effects Po (pale smartweed (Po) [8]): 5
Herbicidal effects Am (slender amaranth (Am) [9]): 5
Herbicidal effects Ab (China jute (Ab) [10]): 5
Herbicidal effects Ci (rice flatsedge (Ci) [11]): 5
Herbicidal effects Ec (barnyardgrass (Ec) [12]): 5
Herbicidal effects Ch [13]: 5
Herbicidal effects Po (pale smartweed (Po) [14]): 5
Herbicidal effects Am (slender amaranth (Am) [15]): 5
Herbicidal effects Di (Diaitaria ciliaris (Di) [16]): 5
Herbicidal effects Ch [17]: 5
Herbicidal effects Po (pale smartweed (Po) [18]): 5
Herbicidal effects Am (slender amaranth (Am) [19]): 5
Herbicidal effects Ab (China jute (Ab) [20]): 5
Phytotoxicity Go (cotton (Go)): 0
Herbicidal effects Ci (rice flatsedge (Ci) [21]): 5
Herbicidal effects Ec (barnyardgrass (Ec) [22]): 5
Herbicidal effects Ch [23]: 5
Herbicidal effects Po (pale smartweed (Po) [24]): 5
Herbicidal effects Am (slender amaranth (Am) [25]): 5
Herbicidal effects Di (Digitaria ciliaris (Di)): 5
Herbicidal effects Ec (barnyardgrass (Ec) [26]): 5
Herbicidal effects Mo (monochoria (Mo)): 5
Herbicidal effects Sc (bulrush (Sc)): 5

From patent publication US6472348B1, “Pyridone derivatives and herbicides” (Kumiai Chemical Industry Co., Ltd., priority 1996, dated 2002)
